The record followed here is patent publication US20230129364A1, “PYRROLIDINE DERIVATIVE, AND PHARMACEUTICAL COMPOSITION FOR PREVENTING OR TREATING BETA-AMYLOID OR TAU PROTEIN-ASSOCIATED DISEASES CONTAINING SAME” (YONSEI UNIVERSITY, UNIVERSITY - INDUSTRY FOUNDATION (UIF), priority 2019, published 2023).

For one assay, the target named is T1, P-Tau (S396) (Homo sapiens, UniProt P10636, P618L).
T1 construct: host or cells: HEK293T
The assay can be described thus: Phosphorylated tau degradation in HEK293T P301L mutant cell line, Western blot, P-Tau S396. It is filed as cell-based. Particulars: 72 hours, HEK293T P301L cells, Western blot quantified with Image J. The source says: (§1) Specifically, the pRK5-EGFP-Tau P301L vector from Addgene (Addgene, MA, USA) was purchased and used in order to stably express P301L, which is a known representative mutation of pathological tau, in HEK293T cells. The P301L vector was inserted into HEK293T cells using a FuGENE HD transfection reagent (Promega, WI, USA) and then stabilized. The cells were removed therefrom and then only the cells into which the vector was inserted were isolated using a fluorescence-activated cell sorter (BD FACS Aria III, BD Bioscience, NJ, USA). After the isolated cells were incubated for 2 to 3 days, they were removed again and separated and cultured using a FACS twice to finally obtain a HEK293T P301 mutant cell line.
(§2) The obtained cells were seeded in each well of a 6-well plate and stabilized for 18 hours, and then each well was treated with the compound of Example 1 such that the final concentration reached 1 or 10 μM. The control group was treated with the same concentration (0.01%) of DMSO used as the solvent of the compound of Example. 72 hours later, the protein was extracted with a lysis buffer and quantified, and then Western blot was performed. A protein sample was electrophoresed on a 4-20% mini-PROTEIN TGX precast protein gel (Bio-Rad, CA, USA) and transferred to a PVDF membrane (Immobilon-P, Merck, Darmstadt, Germany). The primary antibodies used herein were P-Tau AT8 (#MN1020), P-Tau S396 (#44-752G), and P-Tau S356 (#44-751G) from ThermoFisher scientific (MA, USA), and GAPDH (SC-47724) from SANTA CRUZ Biotechnology (TX, USA). The secondary antibody used herein was rabbit/mouse IgG from GeneTex (CA, USA). The image obtained through ImageQuant LAS 4000 (GE healthcare, IL, USA) and the result of quantification using an Image J program are shown in FIG. 1.
A general note: A western blot detects proteins with antibodies after separation by electrophoresis.

The target in a further assay is T2, P-Tau AT8 (S202, T205) (Homo sapiens, UniProt P10636, P618L).
T2 construct: host or cells: HEK293T
T2 sequence (P10636 1-383 isoform P10636-6 P243L): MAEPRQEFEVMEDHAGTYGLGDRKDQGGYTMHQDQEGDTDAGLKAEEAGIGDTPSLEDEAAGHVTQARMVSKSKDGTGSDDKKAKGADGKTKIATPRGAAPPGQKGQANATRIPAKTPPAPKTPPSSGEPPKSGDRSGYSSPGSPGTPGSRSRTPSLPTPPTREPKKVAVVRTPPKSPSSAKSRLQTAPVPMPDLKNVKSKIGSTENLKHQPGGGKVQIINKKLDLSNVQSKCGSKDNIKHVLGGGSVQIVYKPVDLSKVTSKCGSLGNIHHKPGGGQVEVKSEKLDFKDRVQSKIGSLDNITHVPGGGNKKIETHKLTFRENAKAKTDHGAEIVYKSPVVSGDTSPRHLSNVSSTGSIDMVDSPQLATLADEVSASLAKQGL
The assay can be described thus: Phosphorylated tau degradation in HEK293T P301L mutant cell line, Western blot, P-Tau AT8. Type of assay: cell-based. The conditions noted are these: 72 hours, HEK293T P301L cells, Western blot quantified with Image J.
Excerpt: as §1, §2

The target in another assay is T3, pathological (P301S) tau (Homo sapiens, UniProt P10636, P618S).
T3 construct: made in house; host or cells: Star pLysS cells (E. coli), pRSET-B vector, IPTG induction
T3 sequence (P10636 1-441 isoform P10636-8 P301S): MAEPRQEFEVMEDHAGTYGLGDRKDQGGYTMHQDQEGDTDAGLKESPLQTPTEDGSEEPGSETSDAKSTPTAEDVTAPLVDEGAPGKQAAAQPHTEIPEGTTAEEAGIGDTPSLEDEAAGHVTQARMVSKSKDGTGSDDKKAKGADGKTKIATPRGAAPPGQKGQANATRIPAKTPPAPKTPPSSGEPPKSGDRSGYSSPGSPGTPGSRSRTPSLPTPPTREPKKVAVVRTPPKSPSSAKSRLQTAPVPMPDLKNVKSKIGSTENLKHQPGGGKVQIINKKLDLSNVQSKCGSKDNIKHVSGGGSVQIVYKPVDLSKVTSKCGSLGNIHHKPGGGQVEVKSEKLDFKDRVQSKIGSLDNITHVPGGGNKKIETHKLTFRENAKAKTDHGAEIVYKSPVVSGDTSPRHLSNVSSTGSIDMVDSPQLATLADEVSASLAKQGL
The experiment in a line: SPR binding affinity of tau PROTAC to P301S tau. The conditions noted are these: CM5 sensor chip, concentration-dependent kinetic assay, read-out: binding affinity (Ka) to the P301S tau. As for the experimental part:
(§3) The following experiment was performed to verify that the compound according to the present invention selectively degrades only phosphorylated tau. In order to biophysically analyze selective binding of the tau PROTAC to P301S, which is known as a representative mutant of pathological tau, non-pathological (WT) tau and pathological (P301S) tau were cloned into pRSET-B vectors to obtain plasmids. Star pLysS cells were used to overexpress proteins and 1 mM IPTG was added to the medium at an OD600 of 0.4 to 0.6. The intracellular proteins were extracted from the cells lysed in a lysis buffer through heat shock (95° C.), and WT tau and P301S tau were obtained at a high purity (>95%) using cation exchange chromatography and size exclusion chromatography.
(§4) Whether or not the obtained proteins bound to the tau PROTAC was determined through an SPR experiment. A CM5 sensor chip including dextran attached thereto was used, tau PROTAC was allowed to flow and the binding affinity between the protein and the compound was determined based on a response unit (RU). The binding affinity (Ka) to the protein was measured using concentration-dependent kinetic assay. The results of measurement of binding affinity between the tau PROTAC compound and non-pathological WT Tau or pathological P301S tau are shown in FIG. 2. […]

The target of assay [1] is T4, non-pathological (WT) tau (Homo sapiens, UniProt P10636).
T4 construct: made in house; host or cells: Star pLysS cells (E. coli), pRSET-B vector, IPTG induction
T4 sequence (P10636 1-441 isoform P10636-8): as the sequence (P10636 1-441 isoform P10636-8 P301S) above, with S301P counted along it
The assay can be described thus: SPR binding affinity of tau PROTAC to WT tau. Particulars: CM5 sensor chip, concentration-dependent kinetic assay, nonpathological WT tau, read-out: binding affinity (Ka) to tau. As for the experimental part:
as §3, §4
(In general: In SPR one partner is held on a chip, and binding of the other changes the refractive index at the surface.)

For a further assay, the target named is T5, P-Tau (S356) (Homo sapiens, UniProt P10636, P618L).
T5 construct: host or cells: HEK293T
T5 sequence (P10636 1-383 isoform P10636-6 P243L): as the sequence (P10636 1-383 isoform P10636-6 P243L) above
The experiment in a line: Phosphorylated tau degradation in HEK293T P301L mutant cell line, Western blot, P-Tau S356. Type of assay: cell-based. The conditions noted are these: 72 hours, HEK293T P301L cells, Western blot quantified with Image J.
Excerpt: as §1, §2

T1 sequence (P10636 1-383 isoform P10636-6 P243L): as above

For `CCN1C(=O)/C(=C/c2cn(Cc3cn(CCOCCOCC(=O)Nc4cccc5c4C(=O)N(C4CCC(=O)NC4=O)C5=O)nn3)c3ccccc23)NC1=S` (stereo not shown) [TAU-2 PROTAC, (Z)—N-(2-(2,6-dioxopiperidin-3-yl)-1,3-dioxoisoindolin-4-yl)-2-(2-(2-(4-((3-((1-ethyl-5-oxo-2-thioxoimidazolidin-4-ylidene)methyl)-1H-indol-1-yl)methyl)-1H-1,2,3-triazol-1-yl)ethoxy)ethoxy)acetamide], on P-Tau (S396) (1 μM), the “degradation activity, P-Tau (S396)” value is recorded as 30%. The “degradation activity compared to the control group, P-Tau AT8 (S202, T205)” value on P-Tau AT8 (S202, T205) (1 μM) came out at 59%; at P-Tau AT8 (S202, T205) (10 μM), 53%. Moreover, the Kd at pathological (P301S) tau was 18.7 µM; in assay [1] it was 199 µM. The “phosphorylated tau degradation activity, P-Tau (S356)” value on P-Tau (S356) (1 μM) is given as 62%; on P-Tau (S356) (10 μM) it was 80%.
`CCN1C(=O)/C(=C/c2cn(Cc3cn(CCOCCOCCOCC(=O)Nc4cccc5c4C(=O)N(C4CCC(=O)NC4=O)C5=O)nn3)c3cccnc23)NC1=S` (stereo not shown) [TAU-1 PROTAC, (Z)—N-(2-(2,6-dioxopiperidin-3-yl)-1,3-dioxoisoindolin-4-yl)-2-(2-(2-(2-(4-((3-((1-ethyl-5-oxo-2-thioxoimidazolidin-4-ylidene)methyl)-1H-pyrrolo[3,2-b]pyridin-1-yl)methyl)-1H-1,2,3-triazol-1-yl)ethoxy)ethoxy)ethoxy)acetamide]: the “degradation activity, P-Tau (S396)” value on P-Tau (S396) (1 μM) and on P-Tau (S396) (10 μM) was 67% in each case. Further, the “degradation activity compared to the control group, P-Tau AT8 (S202, T205)” value on P-Tau AT8 (S202, T205) (10 μM) is recorded as 26%. The values for the Kd (on pathological (P301S) tau; in assay [1]) were 42 µM and 190 µM, respectively. The “phosphorylated tau degradation activity, P-Tau (S356)” value on P-Tau (S356) (10 μM) is listed as 81%.
